The values below are quoted from earlier work in patent EP0700285B1, “A DRUG DELIVERY COMPOSITION FOR ALPHA-ADRENO RECEPTOR BLOCKING AGENTS” (SYNTHELABO, priority 1993, dated 1994).

Molecules are shown by their SMILES.

Turning to `COc1cc2nc(N(C)CCCNC(=O)C3CCCO3)nc(N)c2cc1OC` (centres unmarked) [alfuzosin], for the setting “after intravenous administration”, the “plasma elimination half life (mean)” value is 4.8 h. Further, the mean half life (after oral administration) was 4.8 h. Where the note is “immediate release dosage form”, the mean oral bioavailability is given as 64%. Further, under “in vivo”, the “parent compound excreted unchanged in the urine” value is 11% and the volume of distribution is on record as 2.5 L/kg.
